Experimental data as given in paper PMC11073699, “Odorant receptors for floral- and plant-derived volatiles in the yellow fever mosquito, Aedes aegypti (Diptera: Culicidae)” (PLOS ONE, 2024).
Values joined by “and” are separate entries in the source; they are usually repeats but may differ in a detail not shown here. Equal entries are not always repeated.

target: T1, AaegOR15 (Aedes aegypti, UniProt A0A6B9QIR2); test: Two-electrode voltage clamp of Xenopus laevis oocytes expressing AaegOR15/Orco (blends, unitary compounds, concentration-response); type: cell-based; settings: AaegOR15/Orco expressing oocytes, TEVC, individual compounds
T1 sequence (A0A6B9QIR2 1-390): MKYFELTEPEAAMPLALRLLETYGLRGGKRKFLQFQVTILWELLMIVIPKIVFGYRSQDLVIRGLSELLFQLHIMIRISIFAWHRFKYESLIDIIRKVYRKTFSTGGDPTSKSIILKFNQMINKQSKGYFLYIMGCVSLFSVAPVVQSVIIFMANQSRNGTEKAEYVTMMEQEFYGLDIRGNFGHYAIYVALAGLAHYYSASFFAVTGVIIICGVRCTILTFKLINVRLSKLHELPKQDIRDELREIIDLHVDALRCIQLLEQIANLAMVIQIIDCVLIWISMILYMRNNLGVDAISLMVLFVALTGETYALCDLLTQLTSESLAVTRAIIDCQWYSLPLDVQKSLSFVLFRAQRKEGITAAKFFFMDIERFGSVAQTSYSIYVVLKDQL
T1 sequence (Q178U6 1-478 partner): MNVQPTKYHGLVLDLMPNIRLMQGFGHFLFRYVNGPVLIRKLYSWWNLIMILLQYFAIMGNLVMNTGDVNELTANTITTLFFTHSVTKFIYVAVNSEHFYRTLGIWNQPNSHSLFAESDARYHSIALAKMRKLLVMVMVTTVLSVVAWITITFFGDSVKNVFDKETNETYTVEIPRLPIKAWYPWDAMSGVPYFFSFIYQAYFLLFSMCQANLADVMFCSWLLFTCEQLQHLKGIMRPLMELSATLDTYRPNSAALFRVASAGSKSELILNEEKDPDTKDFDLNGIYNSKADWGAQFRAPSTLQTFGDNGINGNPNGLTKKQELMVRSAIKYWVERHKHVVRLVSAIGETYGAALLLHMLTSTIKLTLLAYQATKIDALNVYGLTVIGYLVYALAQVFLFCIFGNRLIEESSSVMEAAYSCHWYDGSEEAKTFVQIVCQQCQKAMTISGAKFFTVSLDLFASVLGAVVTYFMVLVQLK
Description: (§1) The coding regions of ten AaegOR genes of interest (S3 File) and AaegOrco were synthesized by Twist Bioscience (San Francisco, CA, USA) and cloned into the pENTR plasmid. The Gateway LR directional cloning system (Invitrogen Corp., Carlsbad, CA, USA) was utilized to subclone AaegOR coding regions into the pSP64t-RFA oocyte expression plasmid. Plasmids were purified using the GeneJet Plasmid Miniprep Kit (ThermoFisher Scientific, Waltham, MA, USA). Purified plasmids were sequenced in both directions to confirm coding regions.
(§2) Chemical compounds (S6 File) used in the deorphanization of AaegORs were purchased from Acros Organics (Morris, NJ, USA), Alfa Aesar (Ward Hill, MA, USA), and ThermoFisher Scientific (Waltham, MA, USA) at the highest purity available. Compounds were stored as 1M stocks in 100% DMSO. Serial dilutions of each compound were prepared in 10% DMSO and blended by chemical class.
(§3) pSP64t-RFA: AaegOR clones were linearized using Xbal, and cRNAs were synthesized using the mMESSAGE mMACHINE ® SP6 kit (Life Technologies, Carlsbad, CA, USA). Xenopus laevis stage V-VII oocytes purchased from Xenopus1 (Dexter, MI, USA) were stored at 18°C in Incubation medium (ND96 96 with 5% dialyzed horse serum, 50μg/mL gentamycin, 100μg/mL streptomycin, 100μg/mL penicillin, and 550μg/mL sodium pyruvate). 30nL of cRNA was injected into multiple oocytes using a microinjection syringe pump (World Precision Instruments, Sarasota, FL, USA) maintained at 18°C for 48–72 hrs. Odorant blends were perfused across individual oocytes for 10–15 seconds, held at a resting membrane potential of -80 mV using an OC-725C oocyte clamp (Warner Instruments, LLC, Hamden, CT, USA). Induced currents were measured indirectly using the two-electrode voltage clamp technique (TEVC). Following each stimulus, currents were allowed to return to baseline before further stimulation. Data was captured using the Digidata 1550 B digitizer and PClamp10 software (Molecular Devices, San Jose, CA, USA). Concentration-response curves were generated by perfusing unitary odorants over oocytes at increasing concentrations from [10^-3M] to [10^-9M]. Data were analyzed using GraphPad Prism 8 (GraphPad Software Inc., La Jolla, CA, USA). At least two biological replicates were conducted at each concentration and for each compound. Data for at least seven oocytes responding to each compound was analyzed (S7 File).

SMILES	response of OR15 to unitary compounds
CC/C=C\CCO [cis-3-hexen-1-ol]	additional responses
CCC/C=C/CO [trans-2-hexen-1-ol]	additional responses

same assay, conditions: unitary compounds of Alcohols 2; individual oocytes 1-10 (replicates)

SMILES	Raw data (Responses in nA), compounds of blend Alcohols 2
COc1ccccc1 [anisole]	10.0 nA and 20.0 nA (2×) and 220.0 nA and 280.0 nA and 290.0 nA and 310.0 nA and 170.0 nA and 260.0 nA and 100.0 nA
CC/C=C\CCO [cis-3-hexen-1-ol]	20.0 nA and 25.0 nA (2×) and 360.0 nA and 370.0 nA and 350.0 nA and 580.0 nA and 250.0 nA and 520.0 nA and 140.0 nA
CCC/C=C/CO [trans-2-hexen-1-ol]	30.0 nA (2×) and 40.0 nA and 310.0 nA and 480.0 nA (2×) and 375.0 nA and 270.0 nA and 440.0 nA and 135.0 nA

target: T2, AaegOR8 (Aedes aegypti, UniProt Q16MN0); test: Two-electrode voltage clamp of Xenopus laevis oocytes expressing AaegOR8/Orco (blends, unitary compounds, concentration-response); type: cell-based; settings: Alcohols 2 unitary compounds; oocyte 1
T2 sequence (Q16MN0 32-422): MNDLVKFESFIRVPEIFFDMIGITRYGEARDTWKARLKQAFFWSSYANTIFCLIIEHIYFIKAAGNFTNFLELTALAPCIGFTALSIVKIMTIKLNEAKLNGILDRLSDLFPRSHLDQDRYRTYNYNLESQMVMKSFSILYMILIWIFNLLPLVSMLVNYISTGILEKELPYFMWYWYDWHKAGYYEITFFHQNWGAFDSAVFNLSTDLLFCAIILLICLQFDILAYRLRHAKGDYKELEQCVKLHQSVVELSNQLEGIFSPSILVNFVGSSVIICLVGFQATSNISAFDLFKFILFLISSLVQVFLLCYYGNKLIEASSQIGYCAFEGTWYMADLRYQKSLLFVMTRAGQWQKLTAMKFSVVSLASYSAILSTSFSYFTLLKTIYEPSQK
T2 sequence (Q178U6 1-478 partner): T1 sequence (Q178U6 1-478 partner)
Description: as §1, §2, §3

SMILES	Raw data (Responses in nA) Oocyte 1 [nA]
COc1ccccc1 [anisole]	0.0
CC/C=C\CCO [cis-3-hexen-1-ol]	0.0
CCC/C=C/CO [trans-2-hexen-1-ol]	0.0

same assay, conditions: Alcohols 2 unitary compounds; oocyte 2

SMILES	Raw data (Responses in nA) Oocyte 2 [nA]
COc1ccccc1 [anisole]	0.0
CC/C=C\CCO [cis-3-hexen-1-ol]	0.0
CCC/C=C/CO [trans-2-hexen-1-ol]	0.0

same assay, conditions: Alcohols 2 unitary compounds; oocyte 3

SMILES	Raw data (Responses in nA) Oocyte 3 [nA]
COc1ccccc1 [anisole]	0.0
CC/C=C\CCO [cis-3-hexen-1-ol]	0.0
CCC/C=C/CO [trans-2-hexen-1-ol]	0.0

same assay, conditions: Alcohols 2 unitary compounds; oocyte 4

SMILES	Raw data (Responses in nA) Oocyte 4 [nA]
COc1ccccc1 [anisole]	0.0
CC/C=C\CCO [cis-3-hexen-1-ol]	0.0
CCC/C=C/CO [trans-2-hexen-1-ol]	0.0

same assay, conditions: Alcohols 2 unitary compounds; oocyte 5

SMILES	Raw data (Responses in nA) Oocyte 5 [nA]
COc1ccccc1 [anisole]	0.0
CC/C=C\CCO [cis-3-hexen-1-ol]	5.0
CCC/C=C/CO [trans-2-hexen-1-ol]	0.0

same assay, conditions: Alcohols 2 unitary compounds; oocyte 6

SMILES	Raw data (Responses in nA) Oocyte 6 [nA]
COc1ccccc1 [anisole]	10.0
CC/C=C\CCO [cis-3-hexen-1-ol]	0.0
CCC/C=C/CO [trans-2-hexen-1-ol]	0.0

same assay, conditions: Alcohols 2 unitary compounds; oocyte 7

SMILES	Raw data (Responses in nA) Oocyte 7 [nA]
COc1ccccc1 [anisole]	5.0
CC/C=C\CCO [cis-3-hexen-1-ol]	10.0
CCC/C=C/CO [trans-2-hexen-1-ol]	0.0

same assay, conditions: Alcohols 2 unitary compounds; oocyte 8

SMILES	Raw data (Responses in nA) Oocyte 8 [nA]
COc1ccccc1 [anisole]	0.0
CC/C=C\CCO [cis-3-hexen-1-ol]	0.0
CCC/C=C/CO [trans-2-hexen-1-ol]	0.0
